According to ChEMBL document CHEMBL5576080, “Oropouche virus - The "Newest" invisible public enemy?” (Bioorg Med Chem, 2024):
The source made the active and inactive calls. The rule behind the calls is not given here.

Columns and labels:
[1] = Selectivity index, ratio of CC50 for African green monkey Vero cells to EC50 for Oropouche virus infected in Vero cells; assay type: toxicity, cell-based; conditions: read-out: Ratio CC50/EC50
[2] = tested on: Oropouche virus; assay: (§1) Inhibition of Oropouche virus N-terminal His-tagged fusion endonuclease expressed in Escherichia coli Rosetta (DE3) cells using FAM-TCT CTA GCA GTG GCG CC-TAM as DNA substrate measured every 60 secs for 60 mins by fluorescence based analysis
[3] = Cytotoxicity against African green monkey Vero cells assessed as reduction in cell viability measured after 72 hrs by MTT assay; assay type: toxicity, cell-based; conditions: chlorocebus sabaeus
[4] = tested on: Oropouche virus; assay: Antiviral activity against Oropouche virus infected in Vero cells incubated for 1 hr and measured after 3 days by crystal violet staining based analysis; assay type: functional, organism-based
[5] = as §1
[6] = Inhibition of Oropouche virus N-terminal His-tagged fusion endonuclease expressed in Escherichia coli Rosetta (DE3) cells using FAM-TCT CTA GCA GTG GCG CC-TAM as DNA substrate measured every 60 secs for 60 mins by FRET assay

Oc1cc(O)c2c(O)c3cc4ccccc4cc3nc2c1
selectivity ratio [1]: 70.8 | inhibition [2]: inactive | CC50 at 72 h [3]: 1.53 mM | EC50 [4]: 21.6 µM

COc1cc2[nH]c3c(OC)c(OC)ccc3c(=O)c2c(OC)c1OC [CUSCULINE]
selectivity ratio [1]: 49.6 | IC50 [5]: 1400 nM | CC50 at 72 h [3]: 1.64 mM | EC50 [4]: 33 µM

COc1cc(O)c2c(c1)oc(=O)c1c3cc(O)c(O)cc3oc21 [WEDELOLACTONE]
IC50 [6]: 310 nM | CC50 at 72 h [3]: 0.373 mM | EC50 [4]: 18.9 µM
